Reference: patent publication US8158809B2 (priority 2003, dated 2012)

System: HCT116
Experiment: Cell colony formation assay
Assay type: cell-based
Details: 72 hours with drug, colonies counted after 7 days
Protocol: This example provides directions for growing cells and testing compounds of the invention for their effect on the growth of the cells. All cells were purchased from DCTDC Tumor Repository, NCI, NIH.
The cells were incubated in a CO2 incubator at 37° C. for 5 hours for attachment to the bottom of Petri dishes. Drugs were made fresh in medium at ten times the final concentration, and then 0.3 ml of this stock solution was added to the 2.7 ml of medium in the dish. The cells were then incubated with drugs for 72 hours at 37° C. At the end of the incubation the drug-containing media were decanted, the dishes were rinsed with 4 ml of Hank's Balance Salt Solution (HBSS), 5 ml of fresh medium was added, and the dishes were returned to the incubator for colony formation. The cell colonies were counted using colony counter after incubation for 7 days for HCT116 cells and PC-3 cells and 8 days for VM46 cells, respectively. Cell survival (%) was calculated, as shown in Table I below for HCT 116 cells.

| SMILES | In Vitro Efficacy: Survival (%) of HCT116 (100 nM) | In Vitro Efficacy: Survival (%) of HCT116 (1000 nM) | In Vitro Efficacy: Survival (%) of HCT116 (10 nM) | In Vitro Efficacy: Survival (%) of HCT116 (1 nM) |
| --- | --- | --- | --- | --- |
| COc1cc(C2c3cc4c(cc3C(OC(=O)c3ccc5c(c3)C(=O)c3ccccc3C5=O)C3COC(=O)C23)OCO4)cc(OC)c1OC (stereo not drawn) [Compound 000121, Podophyllotoxin-4-O-ester of anthraquinone-2-carboxylic acid] | 94.03% | 0% |  |  |
| COc1cc([C@@H]2c3cc4c(cc3[C@H](OC(=O)c3cccc(NC(=O)CCl)c3)[C@H]3COC(=O)[C@H]23)OCO4)cc(OC)c1OC [Compound 000124, Podophyllotoxin-4-O-ester of 3-chloroacetamidobenzoic acid] | 0% | 0% | 83.22% |  |
| COc1cc(C2c3cc4c(cc3C(OC(=O)c3cc(-c5ccccc5)nc5ccccc35)C3COC(=O)C23)OCO4)cc(OC)c1OC (stereo not drawn) [Compound 000125, Podophyllotoxin-4-O-ester of 2-phenyl-4-quinolinecarboxylic acid] | 90.34% | 0% |  |  |
| COc1cc(C2c3cc4c(cc3C(OC(=O)CCC(=O)O)C3COC(=O)C23)OCO4)cc(OC)c1OC (stereo not drawn) [Compound 000201, Podophyllotoxin-4-O-ester of hemisuccinic acid] | 93.24% | 0% |  |  |
| COc1cc(C2c3cc4c(cc3C(OC(=O)c3ccc([N+](=O)[O-])o3)C3COC(=O)C23)OCO4)cc(OC)c1OC (stereo not drawn) [Compound 000202, Podophyllotoxin-4-O-ester of 5-nitro-2-furoic acid] | 0% | 0% | 81.68% |  |
| COc1cc([C@@H]2c3cc4c(cc3[C@H](OC(=O)[C@@H]3CCCN3C(=O)OC(C)(C)C)[C@H]3COC(=O)[C@H]23)OCO4)cc(OC)c1OC [Compound 000203, Podophyllotoxin-4-O-ester of N-(tert-Butoxycarbonyl)-L-proline] | 89.76% | 0% |  |  |
| COc1cc([C@@H]2c3cc4c(cc3[C@H](OC(=O)c3cc(=O)c5ccccc5o3)[C@H]3COC(=O)[C@H]23)OCO4)cc(OC)c1OC [Compound 000215, Podophyllotoxin-4-O-ester of chromone-2-carboxylic acid] | 0% | 0% | 92.46% |  |
| COc1cc(C2c3cc4c(cc3C(OC(=O)COC3CC(C)CCC3C(C)C)C3COC(=O)C23)OCO4)cc(OC)c1OC (stereo not drawn) [Compound 000218, Podophyllotoxin-4-O-ester of (+)-menthoxyethanoic acid] | 44.28% | 0% |  |  |
| COc1cc([C@@H]2c3cc4c(cc3[C@H](OC(=O)C(C)ON=C3c5cc([N+](=O)[O-])cc([N+](=O)[O-])c5-c5c3cc([N+](=O)[O-])cc5[N+](=O)[O-])[C@H]3COC(=O)[C@H]23)OCO4)cc(OC)c1OC (stereo partly drawn) [Compound 000222, Podophyllotoxin-4-O-ester of (+)-2-(2,4,5,7-tetranitro-9-fluorenylideaminooxy)-propionic acid] | 1.46% | 0% | 100% |  |
| COc1cc([C@@H]2c3cc4c(cc3[C@H](OC(=O)C3Cc5c([nH]c6ccccc56)CN3C(=O)OC(C)(C)C)[C@H]3COC(=O)[C@H]23)OCO4)cc(OC)c1OC (stereo partly drawn) [Compound 000301, Podophyllotoxin-4-O-ester of N—BOC-1,2,3,4-Tetrahydro-β-carboline-3-carboxylic acid] | 84.08% | 0% |  |  |
| COc1cc(C2c3cc4c(cc3C(OC(=O)C3Cc5ccccc5CN3C(=O)OC(C)(C)C)C3COC(=O)C23)OCO4)cc(OC)c1OC (stereo not drawn) [Compound 000302, Podophyllotoxin-4-O-ester of N—BOC-1,2,3,4-Tetrahydroisoquinoline-3-carboxylic acid] | 100% | 0% |  |  |
| COc1cc(C2c3cc4c(cc3C(OC(=O)C(NC(=O)OC(C)(C)C)C(C)c3ccccc3)C3COC(=O)C23)OCO4)cc(OC)c1OC [Compound 000307, Podophyllotoxin-4-O-ester of N—BOC-erythro-D-β-Methylphenylalanine] | 93.49% | 0% |  |  |
| COc1cc([C@@H]2c3cc4c(cc3[C@H](OC(=O)COc3ccc(Cl)cc3C)[C@H]3COC(=O)[C@H]23)OCO4)cc(OC)c1OC [Compound 000317, Podophyllotoxin-4-O-ester of 4-chloro-2-methylphenoxyacetic acid] | 0% | 0% | 99.49% |  |
| COc1cc([C@@H]2c3cc4c(cc3[C@H](OC(=O)COc3ccc(Br)cc3)[C@H]3COC(=O)[C@H]23)OCO4)cc(OC)c1OC [Compound 000320, Podophyllotoxin-4-O-ester of 4-bromophenoxyacetic acid] | 0% | 0% | 100% |  |
| COc1cc(C2c3cc4c(cc3C(OC(=O)COc3ccc(C=O)cc3)C3COC(=O)C23)OCO4)cc(OC)c1OC (stereo not drawn) [Compound 000323, Podophyllotoxin-4-O-ester of 4-formylphenoxyacetic acid] | 0% | 0% | 90.86% |  |
| COc1cc([C@@H]2c3cc4c(cc3[C@H](OC(=O)COc3ccc(Cl)cc3Cl)[C@H]3COC(=O)[C@H]23)OCO4)cc(OC)c1OC [Compound 000324, Podophyllotoxin-4-O-ester of 2,4-dichlorophenoxyacetic acid] | 0% | 0% | 100% |  |
| COc1ccc(OCC(=O)OC2c3cc4c(cc3C(c3cc(OC)c(OC)c(OC)c3)C3C(=O)OCC23)OCO4)cc1 (stereo not drawn) [Compound 000329, Podophyllotoxin-4-O-ester of 4-methoxyphenoxyacetic acid] | 0% | 0% | 100% |  |
| COc1cc([C@@H]2c3cc4c(cc3[C@H](OC(=O)c3cncc(C(=O)O[C@H]5c6cc7c(cc6[C@@H](c6cc(OC)c(OC)c(OC)c6)[C@H]6C(=O)OC[C@@H]65)OCO7)c3)[C@H]3COC(=O)[C@H]23)OCO4)cc(OC)c1OC [Compound 000330, Bis(Podophyllotoxin-4-O-ester) of 3,5-Pyridinedicarboxylic acid] | 0% | 0% | 100% |  |
| COc1cc([C@@H]2c3cc4c(cc3[C@H](OC(=O)c3cc(C(=O)O[C@H]5c6cc7c(cc6[C@@H](c6cc(OC)c(OC)c(OC)c6)[C@H]6C(=O)OC[C@@H]65)OCO7)cc([N+](=O)[O-])c3)[C@H]3COC(=O)[C@H]23)OCO4)cc(OC)c1OC [Compound 000331, Bis(Podophyllotoxin-4-O-ester) of 5-nitroisophthalic acid] | 62.56% | 0% |  |  |
| COc1cc([C@@H]2c3cc4c(cc3[C@H](OC(=O)COc3ccc5c(C)c(Cl)c(=O)oc5c3)[C@H]3COC(=O)[C@H]23)OCO4)cc(OC)c1OC [Compound 000405, Podophyllotoxin-4-O-ester of 7-(carboxymethoxy)-3-chloro-4-methylcoumarin] | 0% | 0% | 90.45% |  |
| COc1cc(C2c3cc4c(cc3C(OC(=O)COc3ccc(I)cc3)C3COC(=O)C23)OCO4)cc(OC)c1OC (stereo not drawn) [Compound 000614, Podophyllotoxin-4-O-ester of 4-iodophenoxyacetic acid] | 0% | 0% | 84.99% |  |
| COc1cc([C@@H]2c3cc4c(cc3[C@H](OC(=O)COc3ccc(F)cc3)[C@H]3COC(=O)[C@H]23)OCO4)cc(OC)c1OC [Compound 000615, Podophyllotoxin-4-O-ester of 4-fluorophenoxyacetic acid] | 0% | 0% | 100% |  |
| COc1cc(C2c3cc4c(cc3C(OC(=O)COc3cccc(Cl)c3)C3COC(=O)C23)OCO4)cc(OC)c1OC (stereo not drawn) [Compound 000622, Podophyllotoxin-4-O-ester of 3-chlorophenoxyacetic acid] | 0% | 0% | 98.48% |  |
| CC[C@@]1(OC(=O)COc2ccc(C(=O)O[C@H]3c4cc5c(cc4[C@@H](c4cc(OC)c(OC)c(OC)c4)C4C(=O)OCC43)OCO5)cc2)C(=O)OCc2c1cc1n(c2=O)Cc2cc3ccccc3nc2-1 (stereo partly drawn) [Compound 000801, Podophyllotoxin-4-O-ester of camptothecin-20-O-ester of 4-carboxylicphenoxyacetic acid] | 0% | 0% | 0% | 99.83% |
| COc1cc(C2c3cc4c(cc3C(OC(=O)CCCc3ccc(N(CCCl)CCCl)cc3)C3COC(=O)C23)OCO4)cc(OC)c1OC (stereo not drawn) [Compound 0003132, Podophyllotoxin-4-O-ester of 4-(4-dichloroethylamino) phenylbutyric acid] | 97.65% | 0% |  |  |
